According to PMC6081593, “Cytotoxic and Apoptotic Effects of Govaniadine Isolated from Corydalis govaniana Wall. Roots on Human Breast Cancer (MCF-7) Cells” (BioMed Research International, 2018):
Where two headings read alike, the source gives them in different places.

How the values were obtained:
MCF-7 cells [1] = experiment: SRB in vitro cytotoxicity assay, MCF-7; assay type: cell-based, human; settings: for IC50: Homo sapiens, MCF7, SRB assay, read-out: IC50 (dose causing 50% inhibition) of MCF-7 cells
Protocol: (§1) Human breast cancer cell line [MCF-7, ER^+ (ATCC, HTB-22TM)] was cultured in Dulbecco's Modified Eagle Medium (DMEM) (Invitrogen, Carlsbad, CA, USA) supplemented with 10% Fetal bovine serum (FBS), 100 U/mL of penicillin, 0.1 mg/mL streptomycin, and 0.01 mg/mL insulin. Normal mammary epithelial cell line [MCF-10A (ATCC® CRL-10317)] was grown in Mammary Epithelium Basal Medium (MEBM) (Lonza, Walkersville, MD, USA). Both MCF-7 and MCF-10A cells were maintained in a humidified incubator at 37°C with 5% CO2. All the cell lines and 10% FBS were purchased from the American type cell culture (ATCC), Rockville, MD, USA. All chemicals were purchased from Sigma-Aldrich (St. Louis, MO, USA) unless otherwise specified.
(§2) MCF-7 and MCF-10A cells were trypsinized using […] trypsin/EDTA, plated in cell culture treated 96-well plates (5 x 10^3 cells/ well) and incubated for 24 h. After incubation, cells were treated with govaniadine (1, 2, 4, 8, or 16 μM) and maintained at 37°C with CO2 for 24, 48, or 72 h. After the incubation period, Sulforhodamine B (SRB) assay was performed as described previously to assess cell viability. Absorbance was read at optical density (OD) 540 nm (Synergy™ HT, BioTek, USA) and percentage cell viability was calculated. Negative controls contained only 0.1% DMSO and medium whereas paclitaxel was used as the positive control.

MCF-10A cells = experiment: SRB in vitro cytotoxicity assay, MCF-10A; assay type: cell-based; settings: Homo sapiens, read-out: IC50 against MCF-10A cells
Protocol: as §1, §2

caspase-7 = experiment: Caspase-Glo 3/7 assay of caspase 7 activity in MCF-7 cells; assay type: cell-based, human; settings: 1 μM (P<0.05) and 2 μM (P<0.01), 24 h, vs control
Protocol: MCF-7 cells (2 x 10^5 cells/mL) were seeded in 96-well plates and maintained for 24 h at 37°C in 5% CO2. After 24 h, cells were exposed to govaniadine (1 and 2 μM) for further 24 h. Control cells were treated with 0.1% DMSO. Caspase-Glo® 3/7 assay (Promega, Madison, WI, USA) was used to measure caspase 7 activity according to the manufacturer's instructions, and luminescence was measured using a luminescence plate reader (Synergy™ HT, BioTek, USA).

p53 mRNA = experiment: RT-qPCR p53 mRNA expression in MCF-7 cells; assay type: cell-based, human; settings: 24 h incubation
Protocol: (§3) Cells were grown in T25 flasks (2 x 10^5 cells/mL) for 24 h at 37°C in 5% CO2 and treated with govaniadine (1 and 2 μM) in triplicate and incubated for further 24 h. Control cells were treated with 0.1% DMSO. After 24 h, cells were harvested and total RNA was extracted with TRIzol® Reagent (Invitrogen; Thermo Fisher Scientific, Inc., Carlsbad, CA, USA) according to the manufacturer's protocol. cDNA synthesis and RT-qPCR were performed as described previously. RT-qPCR was performed in Stratagene Mx3000P real time PCR machine using MESA Green qPCR Master Mix Plus for SYBR Assay (Eurogentec, Seraing, Liège, Belgium). Data were normalized to an internal reference gene GAPDH, and relative gene expression was assessed using the comparative Ct method (2^−ΔΔCt).

Bax mRNA = experiment: RT-qPCR Bax mRNA expression in MCF-7 cells; assay type: cell-based, human; settings: 24 h incubation
Protocol: as §3

Survivin mRNA = experiment: RT-qPCR survivin mRNA expression in MCF-7 cells; assay type: cell-based, human; settings: 24 h incubation
Protocol: as §3

MCF-7 cells [2] = experiment: Annexin V/PI flow cytometry apoptosis detection; assay type: cell-based, human; settings: 24 h; for early apoptotic cells: upper left quadrant; for late apoptotic cells: upper right quadrant
Protocol: MCF-7 cells (2x10^5 cell/mL) cultured in T25 cell culture flasks for 24 h at 37°C in 5% CO2 were exposed to govaniadine (4, 8, and 16 μM) for further 24 h. Control cells were treated with 0.1% DMSO. After 24 h, apoptosis mediated by the govaniadine on MCF-7 cells was detected by the Annexin V/ Propidium Iodide (PI) apoptosis detection kit (Santa Cruz, Texas, USA) according to the manufacturer's instructions by using a Partec Cyflow® Cube 6 Flow Cytometer. The data was analyzed with De Novo FCS Express version 4 software, and all experiments to detect apoptosis were done in triplicate.

MCF-7 cells [3] = experiment: DNA fragmentation analysis (gel electrophoresis); assay type: cell-based, human; settings: MCF-7 cells, 4, 8, 16 μM, 48 or 72 h
Protocol: MCF-7 cells (2x10^5 cell/mL) were treated with 4, 8, and 16 μM doses of govaniadine incubated for 48 or 72 h, respectively. Medium containing 0.1% DMSO and thymoquinone were used as negative and positive controls, respectively. After the incubation period, DNA fragmentation was analyzed as described by. Gel electrophoresis was carried out with extracted DNA and visualized under UV light to assess the effect on DNA fragmentation (Quantum-ST4 1100/20 M; Fisher Biotec Pty Ltd., Wembley, Australia) following electrophoresis on a 2.0% agarose gel stained with ethidium bromide (EB).

MCF-7 cells [4] = experiment: Reactive oxygen species (NBT) assay; assay type: cell-based, human; settings: 1 and 2 μM, 24 h, vs control
Protocol: MCF-7 cells were seeded (2x10^5 cell/mL) in 96-well plates for 24 h at 37°C in 5% CO2. After 24 h, MCF-7 cells were treated with govaniadine (1 and 2 μM) in triplicate and incubated for 24 h. Control cells were treated with 0.1% DMSO. An assay for the intracellular conversion of nitro blue tetrazolium (NBT) to formazan by superoxide anion was used to measure the generation of reactive oxygen species in cells. NTB was subsequently added at a final concentration of 1.2 mM to the wells and incubated in the dark for 1 h at 37°C. The formazan content of the cells was then solubilized with […] of DMSO, and the absorbance was measured at OD 630 nm (Synergy™ HT Multi-Mode Microplate Reader).

MCF-7 cells [5] = experiment: Intracellular glutathione (GSH) measurement; assay type: cell-based, human; settings: 1 and 2 μM, 24 h, vs control
Protocol: (§4) MCF-7 cells were seeded (2x10^5 cell/mL) in 24-well plates and maintained for 24 h at 37°C in 5% CO2. Then the cells were exposed to different concentrations of govaniadine (1 and 2 μM) for further 24 h. Control cells were treated with 0.1% DMSO. After 24 h, cells were trypsinized and pelleted. Cell suspension of approximately 10^6 cells per mL in an appropriate buffer was prepared and homogenized using sonication in ice. Cell homogenate was transferred to 1.5 mL eppendorf tubes and centrifuged at 15,000 rpm for 10 min at 4°C. The resulting supernatant (cell lysate) was transferred to a new 1.5 mL micro centrifuge tube and kept on ice. Total amount of protein present in the cell lysate was determined using bovine serum albumin (BSA) as the standard. Reduced GSH was estimated as described previously. The activity of GST was determined as described by. Intracellular GSH and GST levels were expressed as μM/mg of cell lysate protein.

MCF-7 cells [6] = experiment: Intracellular glutathione S-transferase (GST) measurement; assay type: cell-based, human; settings: 1 and 2 μM, 24 h, vs control
Protocol: as §4

MCF-7 cells [7] = experiment: Cell morphology by phase contrast light microscopy; assay type: cell-based, human; settings: 1-16 μM, 24, 48 and 72 h
Protocol: To determine the effect of govaniadine on the morphology of MCF-7 cells, cells (2x10^5 cells/mL) maintained in DMEM for 24 h were exposed to different concentrations (1, 2, 4, 8, and 16 μM) of govaniadine for further 24, 48, or 72 h at 37°C in 5% CO2. Control cells were treated with 0.1% DMSO. After the incubation period, morphological changes of the cells were observed and photographed on an inverted phase contrast microscope (Olympus CKX41SF, Japan).

MCF-7 cells [8] = experiment: Cell morphology and nuclear changes by AO/EB and Hoechst staining; assay type: cell-based, human; settings: 2-16 μM, 24 h
Protocol: MCF-7 cells harvested by trypsinization upon reaching 70-80% confluence were seeded (5x10^4 cells/well) on cell culture treated cover slips placed in a 24-well cell culture plate and exposed to different concentrations (2, 4, 8, and 16 μM) of govaniadine for 24 h at 37°C in 5% CO2. Control cells were treated with 0.1% DMSO. After 24 h, cells were fixed with 4% formaldehyde, and AO/EB solution (10 μL) and Hoechst stain (0.005 mg/mL, 10 μL) were added for 2–5 min. Cells were then observed under a fluorescence microscope (Olympus Co., Tokyo, BX51TRF, Japan).

## COc1ccc2c(c1O)C1Cc3cc4c(cc3CN1CC2)OCO4 (stereo not drawn) [govaniadine]
MCF-7 cells [1]; 24 h postincubation
  IC50: 3.05 ± 0.27 µM
MCF-7 cells [1]; 48 h postincubation
  IC50: 2.52 ± 0.31 µM
MCF-7 cells [1]; 72 h postincubation
  IC50: 1.6 ± 0.23 µM
MCF-7 cells [1]; comparison of IC50 values in MCF-7 and MCF-10A with reference drug
  Selectivity of cytotoxicity, MCF-7 versus MCF-10A cells: more selective towards MCF-7 cells than the paclitaxel
MCF-10A cells; 24 h postincubation
  IC50: 269 ± 0.25 µM
MCF-10A cells; 48 h postincubation
  IC50: 223.4 ± 0.32 µM
MCF-10A cells; 72 h postincubation
  IC50: 194.9 ± 0.24 µM
caspase-7
  Caspase-7 activity: activated significantly
p53 mRNA; 1 μM
  p53 mRNA fold change: 11.37 fold
p53 mRNA; 2 μM
  p53 mRNA fold change: 15.42 fold
Bax mRNA; 1 μM
  Bax mRNA fold change: 5.07 fold
Bax mRNA; 2 μM
  Bax mRNA fold change: 11.66 fold
Survivin mRNA; 1 μM
  survivin mRNA fold increase: 9.08 fold
Survivin mRNA; 2 μM
  survivin gene expression: not regulated
MCF-7 cells [2]; 4 μM
  early apoptotic cells: 3.31%
  late apoptotic cells: 11.15%
MCF-7 cells [2]; 16 μM
  early apoptotic cells: 7.33%
  late apoptotic cells: 41.42%
MCF-7 cells [2]; Homo sapiens, MCF7, 4 μM, lower left quadrant, read-out: intact viable cells
  viability at 4 µM: 78.6%
MCF-7 cells [2]; Homo sapiens, MCF7, 8 μM, lower left quadrant, read-out: intact viable cells
  viability at 8 µM: 61.1%
MCF-7 cells [2]; Homo sapiens, MCF7, 16 μM, lower left quadrant, read-out: intact viable cells
  viability at 16 µM: 36.8%
MCF-7 cells [3]
  DNA fragmentation: DNA fragmentation in a time- and dose-dependent manner
MCF-7 cells [4]
  ROS production: dose-dependent significant (p<0.05) increase
MCF-7 cells [5]
  Intracellular GSH level: decreased significantly
MCF-7 cells [6]
  GST level: increased significantly
MCF-7 cells [7]
  Morphological changes (phase contrast microscopy): increased the number of apoptotic cells
MCF-7 cells [8]
  Nuclear changes (Hoechst 33258 staining): Nuclei with brighter hypercondensed chromatin

## CC(=O)O[C@H]1C(=O)[C@@]2(C)[C@H]([C@H](OC(=O)c3ccccc3)[C@]3(O)C[C@H](OC(=O)[C@H](O)[C@@H](NC(=O)c4ccccc4)c4ccccc4)C(C)=C1C3(C)C)[C@]1(OC(C)=O)CO[C@@H]1C[C@@H]2O [paclitaxel, reference compound]
MCF-7 cells [1]; 24 h postincubation
  IC50: 2.21 ± 0.15 µM
MCF-7 cells [1]; 48 h postincubation
  IC50: 0.13 ± 0.05 µM
MCF-7 cells [1]; 72 h postincubation
  IC50: 0.0089 ± 0.006 µM
MCF-10A cells; 24 h postincubation
  IC50: 11.9 ± 1.5 µM
MCF-10A cells; 48 h postincubation
  IC50: 6.06 ± 2.45 µM
MCF-10A cells; 72 h postincubation
  IC50: 3.11 ± 1.98 µM
